Test results taken from patent US20170320870A1 (Medical Research Council Technology, priority 2009, published 2017).

Tests used:
Assay in all cases: Kinase selectivity: percentage inhibition of each specific kinase at 1 μM inhibitor concentration
Format in all cases: biochemical
[1] = target: each specific kinase (kinase selectivity panel, Table 2) (Homo sapiens, UniProt P27361); details: ERK1
Experimental: (§1) Values are expressed as percentage inhibition of the each specific kinase at 1 μM inhibitor concentration.

[2] = target: each specific kinase (kinase selectivity panel, Table 2) (Homo sapiens, UniProt O14965); details: Aurora A
Experimental: as §1

[3] = target: each specific kinase (kinase selectivity panel, Table 2) (Homo sapiens, UniProt Q13233); details: MEKK1
Experimental: as §1

[4] = target: each specific kinase (kinase selectivity panel, Table 2) (Homo sapiens, UniProt P48730); details: CK1
Experimental: as §1

[5] = target: each specific kinase (kinase selectivity panel, Table 2) (Homo sapiens, UniProt Q9UHD2); details: TBK1
Experimental: as §1

[6] = target: each specific kinase (kinase selectivity panel, Table 2) (Homo sapiens, UniProt Q9H2X6); details: HIPK2
Sequence of each specific kinase (kinase selectivity panel, Table 2) (Homo sapiens, UniProt Q9H2X6) (Q9H2X6 whole entry): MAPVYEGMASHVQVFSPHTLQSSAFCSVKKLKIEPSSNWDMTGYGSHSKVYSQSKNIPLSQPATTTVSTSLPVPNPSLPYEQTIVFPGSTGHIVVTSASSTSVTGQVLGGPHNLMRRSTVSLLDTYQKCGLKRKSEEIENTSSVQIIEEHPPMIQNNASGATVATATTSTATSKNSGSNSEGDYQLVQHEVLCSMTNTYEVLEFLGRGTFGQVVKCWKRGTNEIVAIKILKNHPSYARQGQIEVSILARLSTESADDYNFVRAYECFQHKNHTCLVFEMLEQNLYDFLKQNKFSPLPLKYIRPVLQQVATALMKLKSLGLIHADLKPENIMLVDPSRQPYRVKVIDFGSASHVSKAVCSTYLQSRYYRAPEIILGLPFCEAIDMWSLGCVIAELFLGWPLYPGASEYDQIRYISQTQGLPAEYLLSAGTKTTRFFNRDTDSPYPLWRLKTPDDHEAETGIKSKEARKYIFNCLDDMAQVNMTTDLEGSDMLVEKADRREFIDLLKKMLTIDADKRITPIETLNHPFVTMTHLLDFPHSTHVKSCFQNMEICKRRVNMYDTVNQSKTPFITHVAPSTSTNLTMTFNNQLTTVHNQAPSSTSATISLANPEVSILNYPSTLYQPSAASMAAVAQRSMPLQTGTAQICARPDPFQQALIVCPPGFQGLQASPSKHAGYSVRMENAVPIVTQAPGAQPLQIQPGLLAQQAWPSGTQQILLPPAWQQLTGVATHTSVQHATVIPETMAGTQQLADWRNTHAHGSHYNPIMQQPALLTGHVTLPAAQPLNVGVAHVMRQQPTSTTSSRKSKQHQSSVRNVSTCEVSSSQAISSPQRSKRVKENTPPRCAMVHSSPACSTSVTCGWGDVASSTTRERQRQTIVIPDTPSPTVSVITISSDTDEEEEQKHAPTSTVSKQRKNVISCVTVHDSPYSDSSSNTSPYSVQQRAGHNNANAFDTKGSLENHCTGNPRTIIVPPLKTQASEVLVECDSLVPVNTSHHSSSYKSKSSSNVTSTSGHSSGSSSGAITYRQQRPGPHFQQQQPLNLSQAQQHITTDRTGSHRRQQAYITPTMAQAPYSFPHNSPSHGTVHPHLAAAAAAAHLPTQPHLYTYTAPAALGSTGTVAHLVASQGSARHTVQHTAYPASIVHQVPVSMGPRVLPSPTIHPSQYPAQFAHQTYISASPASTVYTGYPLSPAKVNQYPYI
Experimental: as §1

[7] = target: each specific kinase (kinase selectivity panel, Table 2) (Homo sapiens, UniProt Q06187); details: BTK
Sequence of each specific kinase (kinase selectivity panel, Table 2) (Homo sapiens, UniProt Q06187) (Q06187 whole entry): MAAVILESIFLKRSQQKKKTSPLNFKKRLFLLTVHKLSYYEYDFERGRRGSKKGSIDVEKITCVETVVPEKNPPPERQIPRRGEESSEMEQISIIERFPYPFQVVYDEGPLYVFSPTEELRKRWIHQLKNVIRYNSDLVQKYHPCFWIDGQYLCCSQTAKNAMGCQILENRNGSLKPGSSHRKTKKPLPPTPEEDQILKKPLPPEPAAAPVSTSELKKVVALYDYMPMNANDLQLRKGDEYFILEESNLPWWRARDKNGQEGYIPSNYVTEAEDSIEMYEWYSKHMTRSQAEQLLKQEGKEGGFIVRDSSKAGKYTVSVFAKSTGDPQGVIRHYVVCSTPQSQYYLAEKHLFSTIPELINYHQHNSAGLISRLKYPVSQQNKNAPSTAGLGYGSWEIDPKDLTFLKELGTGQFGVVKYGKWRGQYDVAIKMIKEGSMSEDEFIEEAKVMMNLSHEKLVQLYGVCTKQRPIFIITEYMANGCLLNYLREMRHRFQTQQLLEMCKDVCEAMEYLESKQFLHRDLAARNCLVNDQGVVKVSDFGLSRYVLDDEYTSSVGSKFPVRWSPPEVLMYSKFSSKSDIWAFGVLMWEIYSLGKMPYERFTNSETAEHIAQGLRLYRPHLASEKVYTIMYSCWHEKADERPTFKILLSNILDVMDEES
Experimental: as §1

[8] = target: each specific kinase (kinase selectivity panel, Table 2) (Homo sapiens, UniProt Q96RR4); details: CAMKKb
Experimental: as §1

[9] = target: each specific kinase (kinase selectivity panel, Table 2) (Homo sapiens, UniProt Q16539); details: p38a MAPK
Experimental: as §1

[10] = target: each specific kinase (kinase selectivity panel, Table 2) (Homo sapiens, UniProt Q15831); details: LKB1
Sequence of each specific kinase (kinase selectivity panel, Table 2) (Homo sapiens, UniProt Q15831) (Q15831 whole entry): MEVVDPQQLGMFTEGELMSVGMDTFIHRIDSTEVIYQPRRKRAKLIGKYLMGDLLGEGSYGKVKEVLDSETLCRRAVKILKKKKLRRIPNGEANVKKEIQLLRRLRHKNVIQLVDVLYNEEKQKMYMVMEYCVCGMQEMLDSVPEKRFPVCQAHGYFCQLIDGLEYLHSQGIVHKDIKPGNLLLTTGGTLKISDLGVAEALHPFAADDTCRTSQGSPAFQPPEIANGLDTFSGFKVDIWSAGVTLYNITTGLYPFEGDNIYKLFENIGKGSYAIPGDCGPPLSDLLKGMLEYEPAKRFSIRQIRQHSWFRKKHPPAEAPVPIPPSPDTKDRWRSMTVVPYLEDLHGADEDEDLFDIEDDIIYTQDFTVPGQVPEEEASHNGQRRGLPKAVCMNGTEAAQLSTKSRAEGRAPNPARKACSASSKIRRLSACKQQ
Experimental: as §1

[11] = target: each specific kinase (kinase selectivity panel, Table 2) (Homo sapiens, UniProt Q16513); details: PRK2
Experimental: as §1

[12] = target: each specific kinase (kinase selectivity panel, Table 2) (Homo sapiens, UniProt O14920); details: IKKb
Experimental: as §1

[13] = target: each specific kinase (kinase selectivity panel, Table 2) (Homo sapiens, UniProt Q12851); details: GCK
Experimental: as §1

[14] = target: each specific kinase (kinase selectivity panel, Table 2) (Homo sapiens, UniProt O96017); details: CHK2
Experimental: as §1

[15] = target: each specific kinase (kinase selectivity panel, Table 2) (Homo sapiens, UniProt Q9NWZ3); details: IRAK4
Experimental: as §1

[16] = target: each specific kinase (kinase selectivity panel, Table 2) (Homo sapiens, UniProt P17612); details: PKA
Experimental: as §1

[17] = target: each specific kinase (kinase selectivity panel, Table 2) (Homo sapiens, UniProt O00418); details: EF2K
Experimental: as §1

[18] = target: each specific kinase (kinase selectivity panel, Table 2) (Homo sapiens, UniProt Q16584); details: MLK3
Experimental: as §1

[19] = target: each specific kinase (kinase selectivity panel, Table 2) (Homo sapiens, UniProt P23443); details: S6K1
Experimental: as §1

[20] = target: each specific kinase (kinase selectivity panel, Table 2) (Homo sapiens, UniProt P17252); details: PKCa
Experimental: as §1

[21] = target: each specific kinase (kinase selectivity panel, Table 2) (Homo sapiens, UniProt P31751); details: PKBb
Experimental: as §1

[22] = target: each specific kinase (kinase selectivity panel, Table 2) (Homo sapiens, UniProt P49841); details: GSK3b
Experimental: as §1

[23] = target: each specific kinase (kinase selectivity panel, Table 2) (Homo sapiens, UniProt O60285); details: NUAK1
Experimental: as §1

[24] = target: each specific kinase (kinase selectivity panel, Table 2) (Homo sapiens, UniProt P33981); details: TTK
Experimental: as §1

[25] = target: each specific kinase (kinase selectivity panel, Table 2) (Homo sapiens, UniProt Q96SB4); details: SRPK1
Experimental: as §1

[26] = target: each specific kinase (kinase selectivity panel, Table 2) (Homo sapiens, UniProt O14757); details: CHK1
Experimental: as §1

[27] = target: each specific kinase (kinase selectivity panel, Table 2) (Homo sapiens, UniProt Q13188); details: MST2
Experimental: as §1

[28] = target: each specific kinase (kinase selectivity panel, Table 2) (Homo sapiens, UniProt Q9HC98); details: NEK6
Experimental: as §1

[29] = target: each specific kinase (kinase selectivity panel, Table 2) (Homo sapiens, UniProt Q13627); details: DYRK1A
Experimental: as §1

[30] = target: each specific kinase (kinase selectivity panel, Table 2) (Homo sapiens, UniProt Q14012); details: CAMK1
Experimental: as §1

[31] = target: each specific kinase (kinase selectivity panel, Table 2) (Rattus norvegicus, UniProt Q62868); details: ROCK 2
Sequence of each specific kinase (kinase selectivity panel, Table 2) (Rattus norvegicus, UniProt Q62868) (Q62868 whole entry): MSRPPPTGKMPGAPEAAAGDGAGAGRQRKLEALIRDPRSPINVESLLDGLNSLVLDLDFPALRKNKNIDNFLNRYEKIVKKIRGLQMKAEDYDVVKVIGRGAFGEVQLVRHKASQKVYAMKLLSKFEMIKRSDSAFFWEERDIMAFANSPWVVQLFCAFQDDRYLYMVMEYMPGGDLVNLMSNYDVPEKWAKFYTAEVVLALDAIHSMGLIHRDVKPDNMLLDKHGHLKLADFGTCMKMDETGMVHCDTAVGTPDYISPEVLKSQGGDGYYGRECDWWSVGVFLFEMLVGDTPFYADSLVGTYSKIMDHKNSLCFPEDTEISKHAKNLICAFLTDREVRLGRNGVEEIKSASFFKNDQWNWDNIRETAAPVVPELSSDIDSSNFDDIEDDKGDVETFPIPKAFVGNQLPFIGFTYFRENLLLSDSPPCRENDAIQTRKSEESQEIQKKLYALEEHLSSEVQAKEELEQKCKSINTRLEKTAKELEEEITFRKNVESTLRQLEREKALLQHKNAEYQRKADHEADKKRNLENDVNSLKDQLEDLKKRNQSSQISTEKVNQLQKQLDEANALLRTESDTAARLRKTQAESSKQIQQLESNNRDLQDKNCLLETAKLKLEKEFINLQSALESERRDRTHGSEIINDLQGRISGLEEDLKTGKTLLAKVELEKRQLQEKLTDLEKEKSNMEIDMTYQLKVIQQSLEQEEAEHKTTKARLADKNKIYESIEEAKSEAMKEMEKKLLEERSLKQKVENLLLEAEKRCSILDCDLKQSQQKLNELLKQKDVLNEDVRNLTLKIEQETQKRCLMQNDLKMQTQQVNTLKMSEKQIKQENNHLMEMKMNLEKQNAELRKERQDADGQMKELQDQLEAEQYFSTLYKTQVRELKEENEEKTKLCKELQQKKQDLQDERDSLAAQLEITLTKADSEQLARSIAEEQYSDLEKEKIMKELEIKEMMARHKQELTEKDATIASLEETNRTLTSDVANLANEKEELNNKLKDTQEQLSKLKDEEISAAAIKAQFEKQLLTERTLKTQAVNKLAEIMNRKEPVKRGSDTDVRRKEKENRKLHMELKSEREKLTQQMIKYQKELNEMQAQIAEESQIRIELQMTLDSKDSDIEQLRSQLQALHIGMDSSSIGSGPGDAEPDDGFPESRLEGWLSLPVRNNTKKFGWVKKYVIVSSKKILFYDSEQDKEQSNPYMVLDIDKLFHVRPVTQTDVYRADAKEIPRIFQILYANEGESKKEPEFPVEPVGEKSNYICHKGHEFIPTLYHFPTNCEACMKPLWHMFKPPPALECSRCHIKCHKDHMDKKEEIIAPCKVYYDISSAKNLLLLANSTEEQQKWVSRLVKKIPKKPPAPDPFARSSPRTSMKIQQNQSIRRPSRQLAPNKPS
Experimental: as §1

[32] = target: each specific kinase (kinase selectivity panel, Table 2) (Homo sapiens, UniProt Q15746); details: SmMLCK
Experimental: as §1

[33] = target: each specific kinase (kinase selectivity panel, Table 2) (Homo sapiens, UniProt Q05513); details: PKCz
Sequence of each specific kinase (kinase selectivity panel, Table 2) (Homo sapiens, UniProt Q05513) (Q05513 whole entry): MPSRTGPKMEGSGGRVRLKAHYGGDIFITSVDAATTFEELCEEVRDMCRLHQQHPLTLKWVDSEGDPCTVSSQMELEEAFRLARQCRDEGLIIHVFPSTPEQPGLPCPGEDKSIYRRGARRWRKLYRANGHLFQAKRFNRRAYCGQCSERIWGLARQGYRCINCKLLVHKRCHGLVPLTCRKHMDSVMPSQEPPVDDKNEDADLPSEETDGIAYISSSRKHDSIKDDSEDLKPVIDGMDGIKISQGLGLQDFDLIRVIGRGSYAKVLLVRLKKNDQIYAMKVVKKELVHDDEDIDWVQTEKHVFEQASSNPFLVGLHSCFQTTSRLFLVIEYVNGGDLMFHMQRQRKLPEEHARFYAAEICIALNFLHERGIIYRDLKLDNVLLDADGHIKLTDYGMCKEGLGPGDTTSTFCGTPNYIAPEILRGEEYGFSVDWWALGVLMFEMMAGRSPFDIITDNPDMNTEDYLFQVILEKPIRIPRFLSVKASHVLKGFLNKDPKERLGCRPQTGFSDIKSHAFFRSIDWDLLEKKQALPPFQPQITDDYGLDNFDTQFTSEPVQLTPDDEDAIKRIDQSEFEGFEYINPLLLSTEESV
Experimental: as §1

[34] = target: each specific kinase (kinase selectivity panel, Table 2) (Homo sapiens, UniProt Q8IWQ3); details: BRSK2
Experimental: as §1

| SMILES | percentage inhibition of ERK1 [1] | percentage inhibition of Aurora A [2] | percentage inhibition of MEKK1 [3] | percentage inhibition of CK1 [4] | percentage inhibition of TBK1 [5] | percentage inhibition of HIPK2 [6] | percentage inhibition of BTK [7] | percentage inhibition of CAMKKb [8] | percentage inhibition of p38a MAPK [9] | percentage inhibition of LKB1 [10] | percentage inhibition of PRK2 [11] | percentage inhibition of IKKb [12] | percentage inhibition of GCK [13] | percentage inhibition of CHK2 [14] | percentage inhibition of IRAK4 [15] | percentage inhibition of PKA [16] | percentage inhibition of EF2K [17] | percentage inhibition of MLK3 [18] | percentage inhibition of S6K1 [19] | percentage inhibition of PKCa [20] | also measured |
| --- | --- | --- | --- | --- | --- | --- | --- | --- | --- | --- | --- | --- | --- | --- | --- | --- | --- | --- | --- | --- | --- |
| CC[C@H](C)Oc1nccc2[nH]nc(C)c12 [Example 121, 4-((S)-sec-Butoxy)-3-methyl-1H-pyrazolo[4,3-c]pyridine] | 1 percentage | 46 percentage | 0 percentage | 31 percentage | 6 percentage | 0 percentage | 0 percentage | 12 percentage | 0 percentage | 42 percentage | 39 percentage | 15 percentage | 68 percentage | 13 percentage | 12 percentage | 26 percentage | 0 percentage | 23 percentage | 0 percentage | 2 percentage | percentage inhibition of PKBb [21]: 3 percentage; percentage inhibition of GSK3b [22]: 25 percentage; percentage inhibition of NUAK1 [23]: 59 percentage; percentage inhibition of TTK [24]: 30 percentage; percentage inhibition of SRPK1 [25]: 21 percentage; percentage inhibition of CHK1 [26]: 10 percentage; percentage inhibition of MST2 [27]: 55 percentage; percentage inhibition of NEK6 [28]: 6 percentage; percentage inhibition of DYRK1A [29]: 27 percentage; percentage inhibition of CAMK1 [30]: 5 percentage; percentage inhibition of ROCK 2 [31]: 57 percentage; percentage inhibition of SmMLCK [32]: 22 percentage; percentage inhibition of PKCz [33]: 0 percentage; percentage inhibition of BRSK2 [34]: 13 percentage |
| O=C(CCc1n[nH]c2ccnc(NC3CCCCC3)c12)N1CCC[C@H](c2ccccc2)C1 [Example 172, 3-(4-Cyclohexylamino-1H-pyrazolo[4,3-c]pyridin-3-yl)-1-((R)-3-phenyl-piperidin-1-yl)-propan-1-one] | 0 percentage | 0 percentage | 7 percentage | 6 percentage | 14 percentage | 0 percentage | 12 percentage | 21 percentage | 6 percentage | 8 percentage | 16 percentage | 22 percentage | 19 percentage | 40 percentage | 0 percentage | 5 percentage | 0 percentage | 29 percentage | 14 percentage | 0 percentage | percentage inhibition of PKBb [21]: 0 percentage; percentage inhibition of GSK3b [22]: 5 percentage; percentage inhibition of NUAK1 [23]: 14 percentage; percentage inhibition of TTK [24]: 14 percentage; percentage inhibition of SRPK1 [25]: 17 percentage; percentage inhibition of CHK1 [26]: 0 percentage; percentage inhibition of MST2 [27]: 10 percentage; percentage inhibition of NEK6 [28]: 1 percentage; percentage inhibition of DYRK1A [29]: 27 percentage; percentage inhibition of CAMK1 [30]: 14 percentage; percentage inhibition of ROCK 2 [31]: 7 percentage; percentage inhibition of SmMLCK [32]: 18 percentage; percentage inhibition of PKCz [33]: 10 percentage; percentage inhibition of BRSK2 [34]: 0 percentage |
